Experimental data: patent publication US20230059747A1, “A COOLING PREPARATION” (SYMRISE AG, priority 2019, published 2023)

Assays:
rat eyes = conditions: cited from earlier work
[1] = tested on: panel of 5 experienced testers; assay: Long lasting cooling sensation: panel evaluation of toothpaste compositions; assay type: in vivo, human; conditions: added to standard toothpaste
Method: Phenylalkennals and homovanillic acid esters were added alone and in combination to a standard toothpaste composition. A panel of 5 experienced testers evaluated the compositions with regard to initial cooling effect during brushing, directly after brushing and the long last effect after 5 and after 10 minutes. The evaluation was done according to a score card from 1=almost no cooling effect to 10=strong cooling sensation. Example 1 is according to the invention, examples C1 to C3 serve for comparison.

## COC(=O)Cc1ccc(O)c(OC)c1 [methyl ester of homovanillic acid]
Rat eyes
  Pain sensation in rat eyes (assessment in words): active

## CCCCCCCCCOC(=O)Cc1ccc(O)c(OC)c1 [nonyl ester of homovanillic acid]
Rat eyes
  Pain sensation in rat eyes (assessment in words): active

## CCCCCCCCCCCCOC(=O)Cc1ccc(O)c(OC)c1 [dodecyl ester of homovanillic acid]
Rat eyes
  Pain sensation in rat eyes (assessment in words): active

## C/C=C(/C=O)c1ccccc1 [Phenylbutenal, 2-Phenyl-but-2-enal]
[1]
  Cooling sensation during and directly after brushing (in words): improves the cooling sensation during and directly after brushing
  Long lasting cooling sensation after 5 and after 10 minutes (in words): does not have any long lasting effect

## CCCOC(=O)Cc1ccc(O)c(OC)c1 [II-17, Propyl-2-(4-hydroxy-3-methoxyphenyl) acetate]
Rat eyes
  Pain sensation in rat eyes (assessment in words): active

## CCCCCCCCOC(=O)Cc1ccc(O)c(OC)c1 [octyl ester of homovanillic acid]
Rat eyes
  Pain sensation in rat eyes (assessment in words): active
